According to patent US20130196986A1 (priority 2010, published 2013):

Target: T1, P2X7 receptor (Homo sapiens, UniProt Q99572)
T1 construct: stably expressing the full length P2X7 receptor; expressed in transfected cells
T1 sequence (Q99572 1-595): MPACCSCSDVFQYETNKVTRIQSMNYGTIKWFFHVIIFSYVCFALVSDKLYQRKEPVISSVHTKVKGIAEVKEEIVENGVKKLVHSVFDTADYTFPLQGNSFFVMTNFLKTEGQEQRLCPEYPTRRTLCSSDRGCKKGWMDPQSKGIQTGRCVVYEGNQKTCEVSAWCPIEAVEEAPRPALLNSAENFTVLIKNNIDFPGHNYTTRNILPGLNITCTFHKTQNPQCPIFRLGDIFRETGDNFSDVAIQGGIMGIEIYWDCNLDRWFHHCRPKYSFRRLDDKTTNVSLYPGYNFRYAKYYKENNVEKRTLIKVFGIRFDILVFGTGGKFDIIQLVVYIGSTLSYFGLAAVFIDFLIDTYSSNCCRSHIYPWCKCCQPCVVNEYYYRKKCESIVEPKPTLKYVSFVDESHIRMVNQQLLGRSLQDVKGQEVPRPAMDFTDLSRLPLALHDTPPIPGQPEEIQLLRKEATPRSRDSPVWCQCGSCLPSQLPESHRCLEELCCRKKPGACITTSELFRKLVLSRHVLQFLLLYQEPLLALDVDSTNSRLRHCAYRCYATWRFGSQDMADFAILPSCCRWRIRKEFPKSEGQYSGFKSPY
Experiment: Ca++ flux assay (FLIPR) in P2X7-HEK-293 cell line stably expressing the full length P2X7 receptor, Bz-ATP activation
Format: cell-based
Conditions: P2X7-HEK-293 cells; agonist Bz-ATP; fluorescence as total area over 90 seconds; read-out: P2X7 Ca Flux hu IC50
Outline: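 HEK-293 cells stably expressing full-length P2X7 were loaded with Ca++-sensitive dye for 1 h, with compound added during loading. Cells were stimulated with Bz-ATP on FLIPR. Fluorescence was integrated as total area over 90 s, and IC50 was taken as 50% inhibition of the maximal Ca++ response.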

Compound: Cc1c(Cl)cccc1-n1ccn2c(S(=O)(=O)Cc3ccccc3)nnc2c1=O [Compound 139, 3-(benzylsulfonyl)-7-(3-chloro-2-methylphenyl)-[1,2,4]triazolo[4,3-a]pyrazin-8(7H)-one]
- IC50: 0.0317 µM

Compound: Cc1c(Cl)cccc1-n1ccn2c(SCc3ccccc3CS(=O)(=O)c3ccccc3)nnc2c1=O [Compound 43, 7-(3-chloro-2-methylphenyl)-3-(2-(phenylsulfonylmethyl)benzylthio)-[1,2,4]triazolo[4,3-a]pyrazin-8(7H)-one]
- IC50: 0.233 µM

Compound: Cc1nc(CSc2nnc3c(=O)n(-c4cccc(Cl)c4C)ccn23)cs1 [Compound 94, 7-(3-chloro-2-methylphenyl)-3((2-methylthiazol-4-yl)methylthio)-[1,2,4]triazolo[4,3-a]pyrazin-8(7H)-one]
- IC50: 2.56 µM

Compound: Cc1c(-n2ccn3c(SCc4ccccc4Cl)nnc3c2=O)cccc1C(F)(F)F [Compound 28, 3-(2-chlorobenzylthio)-7-(2-methyl-3-(trifluoromethyl)phenyl)-[1,2,4]triazolo[4,3-a]pyrazin-8(7H)-one]
- IC50: 0.148 µM

Compound: Cc1c(Cl)cccc1-n1ccn2c(SCc3ccccc3Oc3ccccc3)nnc2c1=O [Compound 30, 7-(3-chloro-2-methylphenyl)-3-(2-phenoxybenzylthio)-[1,2,4]triazolo[4,3-a]pyrazin-8(7H)-one]
- IC50: 0.067 µM

Compound: COc1cccc(-c2ccccc2CS(=O)(=O)c2nnc3c(=O)n(-c4cccc(C(F)(F)F)c4C)ccn23)c1 [Compound 146, 3-((3′-methoxybiphenyl-2-yl)methylsulfonyl)-7-(2-methyl-3-(trifluoromethyl)phenyl)-[1,2,4]triazolo[4,3-a]pyrazin-8(7H)-one]
- IC50: 0.047 µM

Compound: Cc1c(Cl)cccc1-n1ccn2c(SCc3cccc(F)c3Cl)nnc2c1=O [Compound 16, 7-(3-chloro-2-methylphenyl)-3-(2-chloro-3-fluorobenzylthio)-[1,2,4]triazolo[4,3-a]pyrazin-8(7H)-one]
- IC50: 0.286 µM

Compound: Cc1cccc(-n2ccn3c(SCc4ccccc4)nnc3c2=O)c1C [Compound 92, 3-(benzylthio)-7-(2,3-dimethylphenyl)-[1,2,4]triazolo[4,3-a]pyrazin-8(7H)-one]
- IC50: 0.209 µM

Compound: Cc1c(Cl)cccc1-n1ccn2c(SCc3ccccc3Cc3ccccc3)nnc2c1=O [Compound 45, 3-(2-benzylbenzylthio)-7-(3-chloro-2-methylphenyl)-[1,2,4]triazolo[4,3-a]pyrazin-8(7H)-one]
- IC50: 0.176 µM

Compound: Cc1c(-n2ccn3c([S+]([O-])Cc4ccccc4)nnc3c2=O)cccc1C(F)(F)F (stereo not drawn) [Compound 117, 3-(benzylsulfinyl)-7-(2-methyl-3-(trifluoromethyl)phenyl)-[1,2,4]triazolo[4,3-a]pyrazin-8(7H)-one]
- IC50: 0.0765 µM

Compound: Cc1c(-n2ccn3c(SC(C(=O)c4ccccc4)c4ccccc4)nnc3c2=O)cccc1C(F)(F)F (stereo not drawn) [Compound 22, 7-(2-methyl-3-(trifluoromethyl)phenyl)-3-(2-oxo-1,2-diphenylethylthio)-[1,2,4]triazolo[4,3-a]pyrazin-8(7H)-one]
- IC50: 1.45 µM

Compound: [2H]c1c([2H])c([2H])c(CS(=O)(=O)c2nnc3c(=O)n(-c4cccc(C(F)(F)F)c4C)ccn23)c([2H])c1[2H] [Compound 135, deuterated-7-[2-methyl-3-(trifluoromethyl)phenyl]-3-[(phenyl-(d5)-methyl)sulfonyl]-1,2,4-triazolo[4,3-a]pyrazin-8(7H)-one]
- IC50: 0.0233 µM

Compound: Cc1c(Cl)cccc1-n1ccn2c(SCc3ccccc3N3CCN(C(=O)OC(C)(C)C)CC3)nnc2c1=O [Compound 31, tert-butyl 4-(2-((7-(3-chloro-2-methylphenyl)-8-oxo-7,8-dihydro-[1,2,4]triazolo[4,3-a]pyrazin-3-ylthio)methyl)phenyl)piperazine-1-carboxylate]
- IC50: 1.17 µM

Compound: O=c1c2nnc(SC3c4ccccc4-c4ccccc43)n2ccn1-c1cccc(C(F)(F)F)c1Cl [Compound 26, 3-(9H-fluoren-9-ylthio)-7-(2-chloro-3-(trifluoromethyl)phenyl)-[1,2,4]triazolo[4,3-a]pyrazin-8(7H)-one]
- IC50: 0.047 µM

Compound: Cc1c(Cl)cccc1-n1ccn2c(SCc3ccccc3I)nnc2c1=O [Compound 74, 7-(3-chloro-2-methylphenyl)-3-(2-iodobenzylthio)-[1,2,4]triazolo[4,3-a]pyrazin-8(7H)-one]
- IC50: 0.264 µM

Compound: Cc1c(Br)cccc1-n1ccn2c(SCc3cc(Cl)cc(Cl)c3)nnc2c1=O [Compound 83, 7-(3-brorno-2-methylphenyl)-3-(3,5-dichlorobenzylthio)-[1,2,4]triazolo[4,3-a]pyrazin-8(7H)-one]
- IC50: 0.855 µM

Compound: Cc1c(Cl)cccc1-n1ccn2c(SCc3cccnc3)nnc2c1=O [Compound 96, 7-(3-chloro-2-methylphenyl)-3-(pyridin-3-ylmethylthio)-[1,2,4]triazolo[4,3-a]pyrazin-8(7H)-one]
- IC50: 4.22 µM

Compound: Cc1c(Cl)cccc1-n1ccn2c(SCc3ccccc3C(C)C)nnc2c1=O [Compound 41, 7-(3-chloro-2-methylphenyl)-3-(2-isopropylbenzylthio)-[1,2,4]triazolo[4,3-a]pyrazin-8(7H)-one]
- IC50: 0.372 µM

Compound: Cc1c(-n2ccn3c(S(=O)(=O)Cc4ccccc4-c4ccc(F)cc4)nnc3c2=O)cccc1C(F)(F)F [Compound 138, 3-((4′-fluorobiphenyl-2-yl)methylsulfonyl)-7-(2-methyl-3-(trifluoromethyl)phenyl)-[1,2,4]triazolo[4,3-a]pyrazin-8(7H)-one]
- IC50: 0.0308 µM

Compound: Cc1cccc(-c2ccccc2CSc2nnc3c(=O)n(-c4cccc(C(F)(F)F)c4C)ccn23)c1 [Compound 5, 7-(2-methyl-3-(trifluorornethyl)phenyl)-3-((3'-methylbiphenyl-2-yl)methylthio)-[1,2,4]triazolo[4,3-a]pyrazin-8(7H)-one]
- IC50: 0.0304 µM

Compound: Cc1c(Cl)cccc1-n1ccn2c(SCc3ccccc3CCc3ccccc3)nnc2c1=O [Compound 44]
- IC50: 0.553 µM

Compound: Cc1onc(-c2ccccc2)c1CSc1nnc2c(=O)n(-c3cccc(C(F)(F)F)c3C)ccn12 [Compound 17, 7-(2-methyl-3-(trifluoromethyl)phenyl)-3-((5-methyl-3-phenylisoxazo1-4-yl)methylthio)-[1,2,4]triazolo[4,3-a]pyrazin-8(7H)-one]
- IC50: 0.543 µM

Compound: Cc1c(Cl)cccc1-n1ccn2c(NCCc3ccccc3)nnc2c1=O [Compound 168, 7-(3-chloro-2-methylphenyl)-3-(phenethylamino)-[1,2,4]triazolo[4,3-a]pyrazin-8(7H)-one]
- IC50: 3.15 µM

Compound: O=c1c2nnc(SCc3cc(Cl)cc(Cl)c3)n2ccn1-c1cccc(C(F)(F)F)c1Cl [Compound 60, 7-(2-chloro-3-(trifluorornethyl)phenyl)-3-(3,5-dichlorobenzylthio)-[1,2,4]triazolo[4,3-a]pyrazin-8(7H)-one]
- IC50: 0.0914 µM

Compound: Cc1c(-n2ccn3c(S(=O)(=O)Cc4ccsc4Br)nnc3c2=O)cccc1C(F)(F)F [Compound 125, 3-((2-bromothiophen-3-yl)methylsulfonyl)-7-(2-methyl-3-(trifluoromethyl)phenyl)-[1,2,4]triazolo[4,3-a]pyrazin-8(7H)-one]
- IC50: 0.0155 µM

Compound: COc1ccccc1C(=O)CSc1nnc2c(=O)n(-c3cccc(Cl)c3C)ccn12 [Compound 108, 7-(3-chloro-2-methylphenyl)-3-(2-(2-methoxyphenyl)-2-oxoethylthio)-[1,2,4]triazolo[4,3-a]pyrazin-8(7H)-one]
- IC50: 0.507 µM

Compound: O=c1c2nnc(SCc3ccccc3)n2ccn1-c1cccc(Cl)c1F [Compound 82, 3-(benzylthio)-7-(3-chloro-2-fluorophenyl)-[1,2,4]triazolo[4,3-a]pyrazin-8(7H)-one]
- IC50: 0.374 µM
